Measured values published in patent publication US9040727B2, “Histone deacetylase inhibitor of benzamides and use thereof” (Shanghai Institute of Pharmaceutical Industry, priority 2011, dated 2015).
pIC50: −log10 of the molar value.

How the values were obtained:
HDAC1 = HDAC1 (Homo sapiens (Human), UniProt Q13547); experiment: In vitro inhibitory activity towards HDAC1 (HDAC Inhibitor Drug Screening Kit); assay type: biochemical; conditions: for inhibition at 1 µM: compound at 1 μM; for inhibition at 10 µM: compound at 10 μM
Procedure: (1) The compounds to be tested were each individually prepared as 10 μM and 1 μM solutions and their inhibitory activities towards HDAC1 at these concentrations were tested.
(§1) Each dilution sample was placed in two wells and the enzyme inhibition IC50 of the compound was tested.

HDACs = experiment: In vitro inhibition of HDACs (HDAC Inhibitor Drug Screening Kit); assay type: biochemical; conditions: for inhibitory activity on HDACs compared with MS-275 (by IC50): comparison with MS-275
Procedure: The test was conducted according to the instructions in the HDAC Inhibitor Drug Screening Kit (Biovision/Catalog #50051, BPS).
as §1

Sequence of HDAC1 (Q13547 whole entry): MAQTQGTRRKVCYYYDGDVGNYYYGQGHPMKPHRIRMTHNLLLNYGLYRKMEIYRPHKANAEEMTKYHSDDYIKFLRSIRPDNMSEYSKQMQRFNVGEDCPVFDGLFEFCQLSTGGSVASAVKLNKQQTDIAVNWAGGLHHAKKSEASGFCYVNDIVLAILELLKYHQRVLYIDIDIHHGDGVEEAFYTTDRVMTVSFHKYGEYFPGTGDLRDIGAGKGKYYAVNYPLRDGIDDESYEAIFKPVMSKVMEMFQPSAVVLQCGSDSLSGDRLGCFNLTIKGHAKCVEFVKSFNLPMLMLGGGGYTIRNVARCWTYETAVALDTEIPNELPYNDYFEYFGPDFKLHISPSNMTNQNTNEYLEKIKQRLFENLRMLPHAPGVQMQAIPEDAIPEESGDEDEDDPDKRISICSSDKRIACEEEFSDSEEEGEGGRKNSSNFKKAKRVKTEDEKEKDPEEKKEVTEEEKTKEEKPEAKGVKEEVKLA

Row | Compound | inhibition at 1 µM (HDAC1) | inhibition at 10 µM (HDAC1) | pIC50 (HDACs) | pIC50 (HDAC1) | inhibitory activity on HDACs compared with MS-275 (by IC50) (HDACs)
1 | Nc1ccc(-c2ccccc2)cc1NC(=O)c1ccc(CNC(=O)c2cc3ccccc3o2)cc1 [Compound V-11] | 38.1% | 58.5% |  |  | 
2 | Nc1ccccc1NC(=O)c1ccc(CNC(=O)c2cc3ccccc3o2)cc1 [Compound V-8] | 62.2% | 79.5% |  |  | 
3 | Nc1ccc2[nH]c(C(=O)NCc3ccc(C(=O)Nc4ccccc4N)cc3)cc2c1 [Compound V-23] | 67.1% | 78.8% | 5.16 | 6.00 | 
4 | Nc1ccccc1NC(=O)c1ccc(CNC(=O)c2nc3ccccc3[nH]2)cc1 [Compound V-12] | 8.7% | 28.4% |  |  | 
5 | Nc1ccc(F)cc1NC(=O)c1ccc(CNC(=O)c2nc3ccccc3[nH]2)cc1 [Compound V-13] | 13.4% | 23.9% |  |  | 
6 | CNc1ccc2[nH]c(C(=O)NCc3ccc(C(=O)Nc4ccccc4N)cc3)cc2c1 [Compound V-22] | 36.8% | 59.5% |  |  | 
7 | COc1c(C(=O)NCc2ccc(C(=O)Nc3ccccc3N)cc2)oc2ccccc12 [Compound V-21] | 34.4% | 68.8% | 5.03 | 6.12 | 
8 | Nc1ccccc1NC(=O)c1ccc(CNC(=O)c2cc3ccccc3s2)cc1 [Compound V-24] | 59.1% | 67.4% | 5.76 | 5.80 | better inhibitory activities than MS-275
9 | COc1ccc2cc(C(=O)NCc3ccc(C(=O)Nc4ccccc4N)cc3)ccc2c1 [Compound V-3] | 33.3% | 60% |  |  | 
10 | Nc1ccc(F)cc1NC(=O)c1ccc(CNC(=O)c2cc3ccccc3[nH]2)cc1 [Compound V-7] | 41.4% | 53.3% |  |  | 
11 | Nc1ccc(F)cc1NC(=O)c1ccc(CNC(=O)c2ccc3ccccc3c2)cc1 [Compound V-2] | 28.8% | 46.9% |  |  | 
12 | Nc1ccccc1NC(=O)c1ccc(CNC(=O)c2cc3cc(F)ccc3[nH]2)cc1 [Compound V-18] | 22.1% | 49.5% |  |  | 
13 | Nc1cnccc1NC(=O)c1ccc(CNC(=O)c2cc3ccccc3s2)cc1 [Compound V-28] | 53.5% | 77.4% | 5.88 | 6.14 | 
14 | Nc1ccc(-c2cccs2)cc1NC(=O)c1ccc(CNC(=O)c2cc3ccccc3o2)cc1 [Compound V-10] | 58.9% | 75.4% |  |  | 
15 | Nc1ccccc1NC(=O)c1ccc(CNC(=O)c2ccc3ccccc3c2)cc1 [Compound V-1] | 4.49% | 15.2% |  |  | 
16 | Nc1ccc(F)cc1NC(=O)c1ccc(CNC(=O)c2cccc3ccccc23)cc1 [Compound V-17] | 54% | 76.2% | 6.04 | 6.13 | better inhibitory activities than MS-275
17 | Nc1ccccc1NC(=O)c1ccc(CNC(=O)c2cc3cc(C(F)(F)F)ccc3[nH]2)cc1 [Compound V-20] | 39.4% | 72.2% |  |  | 
18 | COc1ccc2cc(C(=O)NCc3ccc(C(=O)Nc4cc(F)ccc4N)cc3)ccc2c1 [Compound V-4] | 24.7% | 44.8% |  |  | 
